Source: patent US6413521B1, “Helminth parasite antigen with aminopeptidase-like activity” (The Barbraham Institute, priority 1993, dated 2002)

Legend:
Con A Oo12 ApA activity = assay: Con A O12 aminopeptidase inhibition assay, ApA (α-glutamic p-nitroanilide); assay type: biochemical, Ostertagia ostertagi
Description: (§1) The effect of various protease inhibitors on Oo12 activity was assayed and included amastatin (aminopeptidase inhibitor), actinonin (aminopeptidase inhibitor), bestatin (aminopeptidase inhibitor), EDTA (metallo-protease inhibitor), E64 (cysteine protease inhibitor), pepstatin (aspartic protease inhibitor), 1,10 phenanthroline (metallo-protease inhibitor) and 3,4-dichloroisocoumarin (DCI, serine protease inhibitor). 10 μl Con A Oo12 and 100 μl 50 mM Mops buffer, pH 7.0 was added to a microtitre plate well and 2-4 μl of enzyme inhibitor added, to give a final concentration of 0.5 mM and 1 mM actinonin, 50 μM and 100 μM bestatin, 1 mM and 15 mM EDTA, 50 μM and 100 μM E64, 10 and 50 μM pepstatin, 1 mM and 10 mM 1,10 phenanthroline, 100 μM and 500 μM DCI. The plate was preincubated at 37° C. for 20-28 minutes and then assayed for ApM and ApA activity. 100 μl 2 mM leucine p-nitroanilide (ApM) or α-glutamic p-nitroanilide (ApA)/Mops was added per well and the optical density (OD) at 405 nm read using an Elisa plate reader. The plates were incubated at 37° C. for 45-48 minutes and the final OD reading was then taken. The OD change per minute per 10 μl sample was calculated. All assays were carried out in triplicate.

pig ApA and ApM = conditions: Aoyagi et al., J. Antibiotics 43(2); cited from earlier work
Con A Oo12 ApM activity = assay: Con A O12 aminopeptidase inhibition assay, ApM (leucine p-nitroanilide); assay type: biochemical, Ostertagia ostertagi
Description: as §1

Ostertagia ostertagi PHP = assay: Protease digestion of Oo PhP, release of ApM activity; assay type: biochemical
Description: Method: Oo PhP was resuspended in 50 mM Mops buffer, pH 7.0 to give 0.1 mg pellet/ml. 50 μl aliquots were prewarmed at 37° C. for 39 minutes. 5 μl of either α-Chymotrypsin (Sigma type VII, 50 units/mg solid), Subtilisin (Sigma type VIII, 11.6 units/mg solid), Trypsin (Sigma, TPCK-treated type XIII, 9700 units/mg solid) or Thermolysin (Sigma, 37 units/mg solid dissolved in 1 mM KCl/2 mM CaCl) was added to give final protease concentrations of 5, 50, 500, 1000 and 2000 μg/ml. Aliquots containing chymotrypsin, trypsin or subtilisin were then incubated at 37° C. for 1 hour and protease activity inhibited by the addition of 1 μl 10 mM 3,4-dichloroisocoumarin (DCI). Aliquots containing thermolysin were incubated for 2 hours at 37° C. and activity inhibited by the addition of 1 μl 0.25M EDTA. Samples were spun at high speed on the airfuge at 20 psi for 20 minutes at room temperature. 5 μl samples were assay for ApM activity, using the microtitre plate method, over 29.6 minutes with methionine-pNA as substrate.

[1] = system: O. ostertagi extracted residue (microsomal aminopeptidase); assay: Trypsin digestion of O12: aminopeptidase activity released from extracted O. ostertagi residue; assay type: biochemical, Ostertagia ostertagi
Description: The residue obtained by centrifuging an homogenate of O. ostertagi in phosphate-buffered saline containing 0.02% sodium azide (PBSa) at 26,500 g (max) for 20 minutes in a swing-out rotor was re-extracted 3 times with PBSa, once with 1% polyoxyethylenesorbitan monolaurate (Tween 20) in PBSa and once with 50 mM 3-[N-morpholino]propane-sulphonic acid (MOPS) pH 8.0. The extracted residue was resuspended in 50 mM MOPS to give the equivalent of 0.17 g worm starting material per ml. Aliquots were digested with 0.5, 5, 50 or 500 μg TPCK-trypsin (trypsin treated with L-1-tosylamide-2-phenylethylchloromethyl ketone)/ml. Digestions were stopped by the addition of 10 mM DCI (15 μl/ml). […] Release of microsomal aminopeptidase A activity was negligible from pellets digested with 0-50 μg TPCK-trypsin/ml.
In another experiment material from 5 g O. ostertagi was digested twice with 50 μg/ml TPCK-trypsin. About 33% of the original amount of ApM was released after a second digest. […] Fractions were run on SDS-PAGE on a 6-16% minigel. After Coomassie blue staining, a band located around the 116,000 region, about the size expected from tryptic digestion of O12 was located in the fractions having the microsomal aminopeptidase activity.
A further 4.3 g of O. ostertagi was digested twice with TPCK-trypsin as above. The total aminopeptidase activity solubilised equalled 455 nmoles/min (Table 6). The high speed supernatants from the first and second digests (Trypsin HS1 & HS2) were buffer exchanged with ConA buffer A and run on a ConA sepharose column. The start material applied to the column was enriched for ApM activity, having a ratio of ApM:ApA of 18:1. All the ApM activity bound to the column (there was none in the wash-through); and 67% of this was recovered by elution with 0.5M methylglucopyranoside+0.2M methylmannoside. (Thus the use of two sugars in the eluting buffer more than doubled ApM recovery from the ConA column.) Fractions containing ApM activity were pooled, concentrated and subjected to gel filtration (on an FPLC Superdex 75 HR10/30 (Pharmacia) column). […]

Oc12 = assay: Blot of O. circumcincta extracts probed with biotinylated lectins; assay type: binding, Ostertagia circumcincta; conditions: electroblot of O.circumcincta extracts
From the text: The O.circumcincta extracts were electroblotted alongside a sample of H110D and probed with several biotinylated lectins to determine which, if any, would bind to Oc12. (FIG. 8). Biotinylated Concanavalin A, Ulex europaeus, Triticum vulgaris, Dolichos biflorus and Arachis hypogea lectins were used at dilutions optimised for use with H110D. […] U.europaeus lectin bound to several low molecular weight bands and may be used as an affinity chromatography column for removing low molecular weight protein from OcThHS. The wash-through fractions from such a column were applied to a Con A affinity column and the bound proteins were eluted with a gradient of 0-100% 0.5M methylglucoside (FIG. 9). Fractions were assayed for aminopeptidase-like activity (FIG. 10). Aminopeptidase M-like activity was present in the binding fractions.

CC(C)C[C@@H](N)[C@H](O)C(=O)N[C@H](C(=O)N[C@H](C(=O)N[C@@H](CC(=O)O)C(=O)O)C(C)C)C(C)C [Amaststin, amastatin]
α-Glu-pNA enzyme activity (Con A Oo12 ApA activity; inhibitor 10 μM): 0.282 nmoles/min/10 μl ConA O12
α-Glu-pNA enzyme inhibition (Con A Oo12 ApA activity; inhibitor 10 μM): 12%
α-Glu-pNA enzyme activity (Con A Oo12 ApA activity; inhibitor 50 μM): 0.205 nmoles/min/10 μl ConA O12
α-Glu-pNA enzyme inhibition (Con A Oo12 ApA activity; inhibitor 50 μM): 36%
inhibition of pig ApA versus ApM (pig ApA and ApM): better inhibitor of pig ApA than of ApM
Leu-pNA enzyme activity (Con A Oo12 ApM activity; inhibitor 10 μM): 0.218 nmoles/min/10 μl ConA O12
Leu-pNA enzyme inhibition (Con A Oo12 ApM activity; inhibitor 10 μM): 86%
Leu-pNA enzyme activity (Con A Oo12 ApM activity; inhibitor 50 μM): 0.074 nmoles/min/10 μl ConA O12
Leu-pNA enzyme inhibition (Con A Oo12 ApM activity; inhibitor 50 μM): 95%

B1: Trypsin: protease, Sigma, TPCK-treated type XIII, 9700 units/mg solid (protein, UniProt P00760 24-246, looked up)
Serine protease 1: IVGGYTCGANTVPYQVSLNSGYHFCGGSLINSQWVVSAAHCYKSGIQVRLGEDNINVVEGNEQFISASKSIVHPSYNSNTLNNDIMLIKLKSAASLNSRVASISLPTSCASAGTQCLISGWGNTKSSGTSYPDVLKCLKAPILSDSSCKSAYPGQITSNMFCAGYLEGGKDSCQGDSGGPVVCSGKLQGIVSWGSGCAQKNKPGVYTKVCNYVSWIKQTIASN
modifications: TPCK-treated
notes: protease, Sigma, TPCK-treated type XIII, 9700 units/mg solid
Aminopeptidase M activity released by protease digestion, Met-pNA (Ostertagia ostertagi PHP; 5 μg protease/0.1 mg PHP/ml): 0.118 nmoles/min/5 μl high speed supernatant
Aminopeptidase M activity released by protease digestion, Met-pNA (Ostertagia ostertagi PHP; 50 μg protease/0.1 mg PHP/ml): 0.246 nmoles/min/5 μl high speed supernatant
Aminopeptidase M activity released by protease digestion, Met-pNA (Ostertagia ostertagi PHP; 500 μg protease/0.1 mg PHP/ml): 1.075 nmoles/min/5 μl high speed supernatant
Aminopeptidase M activity released by protease digestion, Met-pNA (Ostertagia ostertagi PHP; 1000 μg protease/0.1 mg PHP/ml): 1.273 nmoles/min/5 μl high speed supernatant
Aminopeptidase M activity released by protease digestion, Met-pNA (Ostertagia ostertagi PHP; 2000 μg protease/0.1 mg PHP/ml): 1.068 nmoles/min/5 μl high speed supernatant
release of microsomal aminopeptidase A activity ([1]; 0-50 μg TPCK-trypsin/ml): negligible
release of microsomal aminopeptidase M activity ([1]; 50 μg TPCK-trypsin (485 units), of 0.5, 5, 50 or 500 μg/ml): greatest amount
original amount of ApM released after a second digest ([1]; 5 g O. ostertagi digested twice with 50 μg/ml): About 33%

B2: D.biflorus lectin: biotinylated Dolichos biflorus lectin (protein)
chain: ANIQSFSFKNFNSPSFILQGDATVSSGKLQLTKVKENGIPTPSSLGRAFYSSPIQIYDKSTGAVASWATSFTVKISAPSKASFADGIAFALVPVGSEPRRNGGYLGVFDSDVYNNSAQTVAVEFDTFSNSGWDPSMKHIGIDVNSIKSIATVSWDLANGENAEILITYNAATSLLVASLVHPSRRTSYILSERVDITNELPEYVSVGFSATTGLSEGYIETHDVLSWSFASKLPDDSTAEPLDLASYLVRNVL
binding of biotinylated lectin to Oc12 (Oc12): binds very weakly
